Assay results as given in patent US7897582B2, “Oligonucleotide compositions and methods for the modulation of the expression of B7 protein” (Isis Pharmaceuticals, Inc., priority 2003, dated 2011).
Strand notation (5' to 3'): a small letter for the sugar, then the base; units joined by * are phosphorothioate-linked, units joined directly phosphodiester-linked; [ ] holds rarer units or linkages, { } end groups; capitals alone tell only the bases. e = 2'-O-(2-methoxyethyl) (MOE); [5mC] = 5-methylcytosine; d = 2'-deoxy (DNA)

Tests used:
Assay type in all cases: cell-based
Human B7-2 mRNA = Human B7-2 mRNA expression in electroporated THP-1 cells induced with LPS and dibutyryl cAMP; conditions: THP-1 cells electroporated at 10 micromolar oligonucleotide, LPS and dibutyryl cAMP (500 μM) 16 hours
Excerpt: (§1) The human promonocytic leukaemia cell line, THP-1 (American Type Culture Collection, Manassas, Va.) was maintained in RPMI 1640 growth media supplemented with 10% fetal calf serum (FCS; Life Technologies, Rockville, Md.). A total of 1×10^7 cells were electroporated at an oligonucleotide concentration of 10 micromolar in 2 mm cuvettes, using an Electrocell Manipulator 600 instrument (Biotechnologies and Experimental Research, Inc.) employing 200 V, 1000 μF. Electroporated cells were then transferred to petri dishes and allowed to recover for 16 hrs Cells were then induced with LPS and dibutyryl cAMP (500 μM) for 16 hours. RNA was isolated and processed as described in previous examples.

Human B7-1 mRNA = Human B7-1 mRNA expression in electroporated, LPS-induced THP-1 cells; conditions: THP-1 cells electroporated at 10 micromolar oligonucleotide, LPS 1 μg/ml 16 hours
Excerpt: as §1, with “hrs.” for “hrs”, “at a final concentration of 1 μg/ml” for “and dibutyryl cAMP (500 μM)”

human B7-1 = experiment: Cell surface expression of B7-1 in pcB7-1-transfected COS-7 cells by flow cytometry
Description: The ability of oligonucleotides to inhibit B7-1 expression was evaluated by measuring the cell surface expression of B7-1 in transfected COS-7 cells by flow cytometry.
A T-175 flask was seeded at 75% confluency with COS-7 cells (ATCC accession No. CRL 1651). The plasmid pcB7-1 was introduced into cells by standard calcium phosphate transfection. Following a 4 hour transfection, the cells were trypsinized and seeded in 12-well dishes at 80% confluency. The cells were allowed to adhere to the plastic for 1 hour and were then washed with phosphate-buffered saline (PBS). OptiMEM™ (GIBCO-BRL, Gaithersburg, Md.) medium was added along with 15 μg/mL of Lipofectin™ (GIBCO-BRL, Gaithersburg, Md.) and oligonucleotide at the indicated concentrations. After four additional hours, the cells were washed with phosphate buffered saline (PBS) and incubated with fresh oligonucleotide at the same concentration in DMEM (Dulbecco et al., Virol., 1959, 8, 396; Smith et al., Virol., 1960, 12, 185) with 10% fetal calf sera (FCS).
In order to monitor the effects of oligonucleotides on cell surface expression of B7-1, treated COS-7 cells were harvested by brief trypsinization 24-48 hours after oligonucleotide treatment. The cells were washed with PBS, then resuspended in 100 μL of staining buffer (PBS, 0.2% BSA, 0.1% azide) with 5 μL conjugated anti-B7-1-antibody (i.e., anti-hCD80-FITC, Ancell, Bayport, Minn.; FITC: fluorescein isothiocyanate). The cells were stained for 30 minutes at 4° C., washed with PBS, resuspended in 300 μL containing 0.5% paraformaldehyde. Cells were harvested and the fluorescence profiles were determined using a flow cytometer.
B7 antisense oligonucleotides were tested for their effect on cell surface expression of both B7-1 and B7-2. Cell surface expression was measured as described in Example 1. Experiments were done for both human B7 and mouse B7.
The oligonucleotides were screened as described in Example 2 except that the concentration of oligonucleotide was varied as shown in Table 18.

| Substance | % mRNA EXPRESSION (Human B7-1 mRNA) | % mRNA INHIBITION (Human B7-1 mRNA) | further results |
| --- | --- | --- | --- |
| 113159 (antisense eA*eG*eT*e[5mC]*eT*d[5mC]*d[5mC]*dT*d[5mC]*dT*dT*dG*dG*d[5mC]*dA*eT*eA*e[5mC]*eG*eG) [compound 113159] | – | – | % mRNA EXPRESSION (Human B7-2 mRNA): 43%; % mRNA INHIBITION (Human B7-2 mRNA): 57% |
| 113160 (antisense e[5mC]*e[5mC]*e[5mC]*eA*eT*dA*dA*dG*dT*dG*dT*dG*d[5mC]*dT*d[5mC]*eT*eG*eA*eA*eG) [compound 113160] | – | – | % mRNA EXPRESSION (Human B7-2 mRNA): 09%; % mRNA INHIBITION (Human B7-2 mRNA): 91% |
| 113489 (antisense e[5mC]*e[5mC]*e[5mC]*eT*e[5mC]*d[5mC]*dA*dG*dT*dG*dA*dT*dG*dT*dT*eT*eA*e[5mC]*eA*eA) [compound 113489] | 122% | – | – |
| 113490 (antisense eG*eA*eA*eG*eA*d[5mC]*d[5mC]*d[5mC]*dT*d[5mC]*d[5mC]*dA*dG*dT*dG*eA*eT*eG*eT*eT) [compound 113490] | 183% | – | – |
| 113491 (antisense e[5mC]*eG*eT*eA*eG*dA*dA*dG*dA*d[5mC]*d[5mC]*d[5mC]*dT*d[5mC]*d[5mC]*eA*eG*eT*eG*eA) [compound 113491] | 179% | – | – |
| 113492 (antisense eT*eT*e[5mC]*e[5mC]*e[5mC]*dA*dG*dG*dT*dG*d[5mC]*dA*dA*dA*dA*e[5mC]*eA*eG*eG*e[5mC]) [compound 113492] | 27% | 73% | – |
| 113493 (antisense eT*eG*eG*e[5mC]*eT*dT*d[5mC]*dA*dG*dA*dT*dG*d[5mC]*dT*dT*eA*eG*eG*eG*eT) [compound 113493] | 488% | – | – |
| 113494 (antisense e[5mC]*e[5mC]*eT*e[5mC]*e[5mC]*dG*dT*dG*dT*dG*dT*dG*dG*d[5mC]*d[5mC]*e[5mC]*eA*eT*eG*eG) [compound 113494] | 77% | 23% | – |
| 113495 (antisense eG*eG*eT*eG*eA*dT*dG*dT*dT*d[5mC]*d[5mC]*d[5mC]*dT*dG*d[5mC]*e[5mC]*eT*e[5mC]*e[5mC]*eG) [compound 113495] | 43% | 57% | – |
| 113496 (antisense eG*eA*eT*eG*eG*dT*dG*dA*dT*dG*dT*dT*d[5mC]*d[5mC]*d[5mC]*eT*eG*e[5mC]*e[5mC]*eT) [compound 113496] | 71% | 29% | – |
| 113497 (antisense eA*eG*eG*eT*eA*dT*dG*dG*dA*d[5mC]*dA*d[5mC]*dT*dT*dG*eG*eA*eT*eG*eG) [compound 113497] | 78% | 22% | – |
| 113498 (antisense eG*eA*eA*eA*eG*dA*d[5mC]*d[5mC]*dA*dG*d[5mC]*d[5mC]*dA*dG*d[5mC]*eA*e[5mC]*e[5mC]*eA*eA) [compound 113498] | 37% | 63% | – |
| 113499 (antisense e[5mC]*eA*eG*e[5mC]*eG*dT*dT*dG*d[5mC]*d[5mC]*dA*d[5mC]*dT*dT*d[5mC]*eT*eT*eT*e[5mC]*eA) [compound 113499] | 25% | 75% | – |
| 113500 (antisense eG*eT*eG*eA*e[5mC]*d[5mC]*dA*d[5mC]*dA*dG*dG*dA*d[5mC]*dA*dG*e[5mC]*eG*eT*eT*eG) [compound 113500] | 83% | 17% | – |
| 113501 (antisense eA*eG*eA*eT*eG*d[5mC]*dG*dA*dG*dT*dT*dT*dG*dT*dG*e[5mC]*e[5mC]*eA*eG*e[5mC]) [compound 113501] | 36% | 64% | – |
| 113502 (antisense e[5mC]*e[5mC]*eT*eT*eT*dT*dG*d[5mC]*d[5mC]*dA*dG*dT*dA*dG*dA*eT*eG*e[5mC]*eG*eA) [compound 113502] | 26% | 74% | – |

| Substance | % mRNA EXPRESSION (Human B7-1 mRNA) | % mRNA INHIBITION (Human B7-1 mRNA) | further results |
| --- | --- | --- | --- |
| 113503 (antisense e[5mC]*eG*eG*eT*eT*d[5mC]*dT*dT*dG*dT*dA*d[5mC]*dT*d[5mC]*dG*eG*eG*e[5mC]*e[5mC]*eA) [compound 113503] | 65% | 35% | – |
| 113504 (antisense e[5mC]*eG*e[5mC]*eA*eG*dA*dG*d[5mC]*d[5mC]*dA*dG*dG*dA*dT*d[5mC]*eA*e[5mC]*eA*eA*eT) [compound 113504] | 46% | 54% | – |
| 113505 (antisense e[5mC]*eT*eT*e[5mC]*eA*dG*d[5mC]*d[5mC]*dA*dG*dG*dT*dG*dT*dT*e[5mC]*e[5mC]*e[5mC]*eG*e[5mC]) [compound 113505] | 40% | 60% | – |
| 113506 (antisense eT*eA*eA*e[5mC]*eG*dT*d[5mC]*dA*d[5mC]*dT*dT*d[5mC]*dA*dG*d[5mC]*e[5mC]*eA*eG*eG*eT) [compound 113506] | 105% | – | – |
| 113507 (antisense eT*eT*e[5mC]*eT*e[5mC]*d[5mC]*dA*dT*dT*dT*dT*d[5mC]*d[5mC]*dA*dA*e[5mC]*e[5mC]*eA*eG*eG) [compound 113507] | 36% | 64% | – |
| 113508 (antisense e[5mC]*eT*eG*eT*eT*dG*dT*dG*dT*dT*dG*dA*dT*dG*dG*e[5mC]*eA*eT*eT*eT) [compound 113508] | 117% | – | – |
| 113509 (antisense e[5mC]*eA*eT*eG*eA*dA*dG*d[5mC]*dT*dG*dT*dG*dG*dT*dT*eG*eG*eT*eT*eG) [compound 113509] | 62% | 38% | – |
| 113510 (antisense eA*eG*eG*eA*eA*dA*dA*dT*dG*d[5mC]*dT*d[5mC]*dT*dT*dG*e[5mC]*eT*eT*eG*eG) [compound 113510] | 43% | 57% | – |
| 113511 (antisense eT*eG*eG*eG*eA*dG*d[5mC]*dA*dG*dG*dT*dT*dA*dT*d[5mC]*eA*eG*eG*eA*eA) [compound 113511] | 48% | 52% | – |
| 113512 (antisense eT*eA*eA*eG*eG*dT*dA*dA*dT*dG*dG*d[5mC]*d[5mC]*d[5mC]*dA*eG*eG*eA*eT*eG) [compound 113512] | 73% | 27% | – |
| 113513 (antisense eG*eG*eT*e[5mC]*eA*dG*dG*d[5mC]*dA*dG*d[5mC]*dA*dT*dA*dT*e[5mC]*eA*e[5mC]*eA*eA) [compound 113513] | 48% | 52% | – |
| 113515 (antisense eA*eG*eA*eT*e[5mC]*dT*dT*dT*dT*d[5mC]*dA*dG*d[5mC]*d[5mC]*d[5mC]*e[5mC]*eT*eT*eG*e[5mC]) [compound 113515] | 184% | – | – |
| 113516 (antisense eT*eT*eT*eG*eT*dT*dA*dA*dG*dG*dG*dA*dA*dG*dA*eA*eT*eG*e[5mC]*e[5mC]) [compound 113516] | 83% | 17% | – |
| 113517 (antisense eA*eA*eA*eG*eG*dA*dG*dA*dG*dG*dG*dA*dT*dG*d[5mC]*e[5mC]*eA*eG*e[5mC]*e[5mC]) [compound 113517] | 201% | – | – |
| 113518 (antisense e[5mC]*eA*eA*eG*eA*d[5mC]*dA*dA*dT*dT*d[5mC]*dA*dA*dG*dA*eT*eG*eG*e[5mC]*eA) [compound 113518] | 97% | 03% | – |
| ISIS 13800: phosphorothioate oligonucleotide to human B7-1 mRNA 0158-0177; 5′ UTR; SEQ ID NO: 25 (antisense dA*dC*dA*dC*dA*dC*dA*dG*dA*dG*dA*dT*dT*dG*dG*dA*dG*dG*dG*dT) | – | – | inhibition of B7-1 expression (human B7-1; COS-7 cells transiently expressing B7-1 cDNA, FIG. 1): essentially no inhibition; inhibition of cell surface expression of B7-1 at various concentrations (human B7-1; dose response, FIG. 2): essentially inactive |
